According to publication PMC5581131, “The novel sphingosine-1-phosphate receptors antagonist AD2900 affects lymphocyte activation and inhibits T-cell entry into the lymph nodes” (Oncotarget, 2017):

Columns and labels:
C57BL/6 mice = experiment: CCR7-positive T-cell population in vivo, FACS; parameters: species or system mouse
Description: The S1P gradient is a crucial factor for lymphocytes to egress from lymphoid tissues and re-enter the circulation. […] To identify whether the effect of AD2900 on T-cell localization may be mediated by an influence on S1P1 and CCR7 expression, we tested the percentage of S1P1- and CCR7-positive T-cell populations in the blood, spleen, and lymph node in each mouse after a 2-day treatment with AD2900. The percentage of cells expressing S1P1 or CCR7 on their cell surface was detected by FACS analysis and was calculated as % of expressing population in non-treated animals. […] AD2900 elevates the S1P1-expressing population in the blood and spleen, whereas it reduces this population in the lymph nodes. […] In the lymph nodes, the […] population was not affected by AD2900 treatment (Figure 7F).
Figure 7 The influence of AD2900 on S1P1- and CCR7-positive T-cell populations in blood, spleen, and peripheral lymph nodes C57BL/6 mice were orally administered with 1.8, 2.7, and 3.6 mg/l AD2900 or 1.8 mg/l FTY720 for 2 days, as shown in Figure 4. Leukocytes from blood, spleen, and pLNs were collected and stained with CD3e and S1P1 or CCR7 fluorescent antibodies and then analyzed by FACS analysis. The percentages of S1P1+ CD3e+ T cells from blood (A), spleen (B), and pLNs (C) are shown. The percentages of CCR7+ CD3e+ T cells from blood (D), spleen (E), and pLNs (F) are shown. All the significances are compared to untreated healthy mice. Results summarize at least three independent experiments. Results of Student’s t-test:*(P < 0.05, two-tailed test), ** (P < 0.01, two-tailed test), *** (P < 0.001, two-tailed test), **** (P < 0.0001, two-tailed test).
Murine lymphocytes: The phenotype of murine lymphocytes was analyzed by flow cytometry using anti-CD3e-FITC, anti-CD19-PB, anti-CCR7-APC, anti-CD44-FITC, anti-CD62L-APC, and anti-TCR-β-PB (Biolegend, CA, USA).
C57BL/6 female mice aged 7–8 weeks were obtained from Harlan Laboratories (Jerusalem, Israel). The animal study was conducted under appropriate conditions and was approved by the Institutional Animal Care and Use Committee of the Hebrew University of Jerusalem in accordance with the national laws and regulations for the protection of animals. AD2900 was dissolved in 10% BSA (MP Biomedicals, CA, USA) in DDW at 1 mg/ml and then further diluted in 200 ml water to get final concentrations at 1.8, 2.7, or 3.6 mg/l. AD2900 and FTY720 were supplied ad libitum to the mice for 2 days or 7 days. At the end of the experiment, blood was collected, and the mice were sacrificed and tissues (lymph nodes and spleen) were harvested.

human PBMCs = experiment: 5-day MLR with Et-18-OCH3, BAPTA-AM or 8-bromo-cAMP preincubation, analogues present throughout; format: cell-based; conditions: 2 μM
Method: To determine whether the effect of inhibition of AD2900 on PBMC proliferation is dependent on the same signal transduction pathways, we next examined the capacities of the intracellular Ca^2+ chelator-BAPTA-AM, phosphatidylinositol-specific PLC inhibitor-Et-18-OCH3, and cell-permeate exogenous cAMP-8-bromo-cAMP to alter the suppressive effect of AD2900 and FTY720 on PBMC proliferation. S1P served as a positive control (Figures 2A, 2B, and 2C, respectively). PBMCs were pre-incubated for 1 hour with the inhibitors before the addition of 2 μM AD2900, FTY720, or S1P in the MLR experiment. The inhibitors and the analogues were present in the culture throughout the allogeneic activation. AD2900 suppression of PBMC proliferation was reduced from 59% ± 3% to 32% ± 7% by the exogenous cAMP. BAPTA-AM also partially reversed AD2900 suppression of PBMC proliferation from 59% ± 3% to 32% ± 3%, yet Et-18-OCH3 had no effect (Figure 2A).
Figure 2 Effect of AD2900 on proliferation is dependent on cAMP reduction and calcium signal transduction The effect of Edelfosine (Et-18-OCH3) (Et), BAPTA-AM (BAPTA), or 8-bromo-cAMP (8-b-CAMP) on the inhibition of PBMC proliferation was tested in a 5-day MLR experiment. The cells were incubated with 1 μM Edelfosine, 0.2 μM BAPTA-AM, or 5 μM 8-bromo-cAMP for 1 hour before the addition of sphingolipid analogues, 2 μM AD2900 (AD) (A), FTY720 (FTY) (B), or S1P (C). Significances are compared to AD2900/FTY/S1P without preincubation, respectively. Graphs summarize the results of at least four independent experiments. Results of Student’s t-test: *(P < 0.05, two-tailed test), ** (P < 0.01, two-tailed test).
Human PBLs were collected from human whole blood collected from healthy donors. Subsequently, the cells were centrifuged on a Ficoll-Paque gradient (Fresenius Kabi Norge AS, Oslo, Norway) and were isolated from the interphase layer. For the human MLR experiment, PBMCs from one healthy donor were pretreated for 1 day with AD2900, AD2730, AD2750, YZ297, YZ158, FTY720, or SEW2871. After 24 h, cells were washed and plated at a concentration of 5 × 10^4 cells/well in round bottom 96-well plates containing RPMI-1640 medium Supplemented with 10% human AB serum, 1% penicillin/streptomycin, and 1% l-glutamine (Beit Haemek, Israel). PBMCs from a second donor were irradiated at 3000 γ dosage and added to the plate in a 1:1 ratio with the first donor cells. The cells were cultured for 5 days. For the thymidine incorporation assay, after 4 days of co-culture, cells were pulsed with ^3H-thymidine at 1 μCi (0.037MBq) per well (PerkinElmer, MA, USA) for 16 additional hours and then harvested onto glass-fiber filters. ^3H-thymidine incorporation was measured using Top Count. NXT (PerkinElmer, UK). In other experiments, the supernatant was harvested after 5 days of co-culture for IFN-γ and TNF-α cytokine ELISA measurements (eBioscience, CA, USA). The cells were then collected for assessing apoptosis by FACS in MACSQuant analyzer (Miltenyi Biotech, Germany). In another set of experiments, the PBMCs of two donors were mixed. Sphingolipid analogues were then added to the culture and sustained through the 5 days of the MLR experiment.

Compound	reduction of the CCR7 population in murine blood, spleen, and lymph nodes (C57BL/6 mice; 1.8 mg/l, 2 days)	effect of Et-18-OCH3, BAPTA-AM and 8-bromo-cAMP on suppression of PBMC proliferation (human PBMCs; 1 hour preincubation with the inhibitors)	decrease of CCR7-positive T cells in the blood, of the normal expression levels (C57BL/6 mice; 1.8 mg/l, 2-day treatment)	decrease of CCR7-positive T cells in the blood, of the normal expression levels (C57BL/6 mice; 2.7 mg/l, 2-day treatment)	decrease of the S1P1 population, spleen T cells (Figure 7E) (C57BL/6 mice; 3.6 mg/l (highest dose), 2-day treatment)	S1P1 population in the lymph nodes (Figure 7F) (C57BL/6 mice; 2-day treatment)	suppression of PBMC proliferation (human PBMCs; present throughout MLR, without preincubation)	suppression of PBMC proliferation with BAPTA-AM (human PBMCs; 1 hour preincubation with 0.2 μM BAPTA-AM)	effect of Et-18-OCH3 on suppression of PBMC proliferation (human PBMCs; 1 hour preincubation with 1 μM Et-18-OCH3)	suppression of PBMC proliferation with exogenous cAMP (human PBMCs; 1 hour preincubation with 5 μM 8-bromo-cAMP)
CCCCCCCCc1ccc(CCC(N)(CO)CO)cc1 [FTY720, Fingolimod, reference compound]	15%–20%	not nullified by any of these interventions	–	–	–	–	–	–	–	–
CCCCCCCCCCCCCCCCNC(CO)(CO)CO [AD2900]	–	–	21% ± 5%	15% ± 4%	12% ± 4%	not affected	59% ± 3%	32% ± 3%	no effect	32% ± 7%
